Reference: patent US12404519B2 (priority 2013, dated 2025)
Where a SMILES comes first, the peptide text is derived from it.

Tests used:
[1] = system: Fusarium graminearum PH-1
pathogenic fungi = conditions: pure protein added to in vitro antifungal assay medium; cited from earlier work

Molecule	IC100 (concentration required for 100% inhibition of fungal growth) [1]	IC50 ([1]; 24 h) [µM]	Growth inhibition of pathogenic fungi in vitro (pathogenic fungi)
C[C@H](NC(=O)CN)C(=O)N[C@@H](CS)C(=O)N[C@@H](Cc1c[nH]cn1)C(=O)N[C@@H](CCCNC(=N)N)C(=O)N[C@@H](CCC(N)=O)C(=O)NCC(=O)N[C@@H](Cc1ccccc1)C(=O)NCC(=O)N[C@@H](Cc1ccccc1)C(=O)N[C@@H](C)C(=O)N[C@@H](CS)C(=O)N[C@@H](Cc1ccccc1)C(=O)N[C@@H](CS)C(=O)N[C@@H](Cc1ccc(O)cc1)C(=O)N[C@@H](CCCCN)C(=O)N[C@@H](CCCCN)C(=O)N[C@@H](CS)C(=O)O [GMA-5C, GACHRQGFGFACFCYKKC] (H-GACHRQGFGFACFCYKKC-OH; N-terminus and C-terminus assumed)	about 24 μM	6 to 12	–
Rs-AFP1: small cysteine-rich protein isolated from radish seed (QKLCERPSGTWSGVCGNNNACKNQCINLEKARHGSCNYVFPAHKCICYFPC; UniProt P69241 30-80, looked up)	–	–	inhibited the growth of many pathogenic fungi
Rs-AFP2: small cysteine-rich protein isolated from radish seed (QKLCQRPSGTWSGVCGNNNACKNQCIRLEKARHGSCNYVFPAHKCICYFPC; UniProt P30230 30-80, looked up)	–	–	inhibited the growth of many pathogenic fungi
